Measurements reported in PubChem BioAssay AID1919014 (Molecular Pharmacology Branch, DTP, NCI, 2023).

Tested on: NCI-H1341 complex spheroids, percent test/control
Experiment: Anticancer human tumor NCI-H1341 cell line growth inhibition [AhR];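 note: spheroids exposed to agents for seven days before readout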
Conditions: for IC50: curve of first compound; for viability, T/C: stronger effect = lower value
In short: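 Agents were dosed in half-log steps down from roughly clinical Cmax, or from 10 microM where Cmax was unknown, alone and with AhR antagonists. Read-out: percent test/control growth of tumor spheroids containing HUVEC and MSC stromal cells.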

[1] = second compound 0.1 µM, first compound 0.00316 µM
[2] = second compound 0.1 µM, first compound 0.01 µM
[3] = second compound 0.1 µM, first compound 0.0316 µM
[4] = second compound 0.1 µM, first compound 0.1 µM
[5] = second compound 0.316 µM, first compound 0.00316 µM
[6] = second compound 0.316 µM, first compound 0.01 µM
[7] = second compound 0.316 µM, first compound 0.0316 µM
[8] = second compound 0.316 µM, first compound 0.1 µM
[9] = second compound 1 µM, first compound 0.00316 µM
[10] = second compound 1 µM, first compound 0.01 µM
[11] = second compound 1 µM, first compound 0.0316 µM
[12] = second compound 1 µM, first compound 0.1 µM
[13] = second compound 3.16 µM, first compound 0.00316 µM
[14] = second compound 3.16 µM, first compound 0.01 µM
[15] = second compound 3.16 µM, first compound 0.0316 µM
[16] = second compound 3.16 µM, first compound 0.1 µM
[17] = second compound 10 µM, first compound 0.00316 µM
[18] = second compound 10 µM, first compound 0.01 µM
[19] = second compound 10 µM, first compound 0.0316 µM
[20] = second compound 10 µM, first compound 0.1 µM
[21] = second compound 0.1 µM, first compound 0.316 µM
[22] = second compound 0.1 µM, first compound 1 µM
[23] = second compound 0.1 µM, first compound 3.16 µM
[24] = second compound 0.1 µM, first compound 10 µM
[25] = second compound 0.316 µM, first compound 0.316 µM
[26] = second compound 0.316 µM, first compound 1 µM
[27] = second compound 0.316 µM, first compound 3.16 µM
[28] = second compound 0.316 µM, first compound 10 µM
[29] = second compound 1 µM, first compound 0.316 µM
[30] = second compound 1 µM, first compound 1 µM
[31] = second compound 1 µM, first compound 3.16 µM
[32] = second compound 1 µM, first compound 10 µM
[33] = second compound 3.16 µM, first compound 0.316 µM
[34] = second compound 3.16 µM, first compound 1 µM
[35] = second compound 3.16 µM, first compound 3.16 µM
[36] = second compound 3.16 µM, first compound 10 µM
[37] = second compound 10 µM, first compound 0.316 µM
[38] = second compound 10 µM, first compound 1 µM
[39] = second compound 10 µM, first compound 3.16 µM
[40] = second compound 10 µM, first compound 10 µM

Row | SMILES | IC50 (second compound 0.1 µM) [nM] | IC50 (second compound 0.316 µM) [nM] | IC50 (second compound 1 µM) [nM] | IC50 (second compound 3.16 µM) [nM] | IC50 (second compound 10 µM) [nM] | viability, T/C [3] [%] | viability, T/C [4] [%] | viability, T/C [7] [%] | viability, T/C [8] [%] | viability, T/C [11] [%] | viability, T/C [12] [%] | viability, T/C [15] [%] | viability, T/C [16] [%] | viability, T/C [19] [%] | viability, T/C [20] [%] | viability, T/C [21] [%] | viability, T/C [22] [%] | viability, T/C [25] [%] | viability, T/C [26] [%] | viability, T/C [29] [%] | further results
1 | CC[C@@]1(O)C(=O)OCc2c1cc1n(c2=O)Cc2cc3c(CN(C)C)c(O)ccc3nc2-1 + Cc1cncc(-c2nc(NCCc3c[nH]c4ccccc34)c3ncn(C(C)C)c3n2)c1 | 23.6 | 21.4 | 18.7 | 7.91 | < 0.316 | 42.5 | 38.4 | 43.5 | 38.2 | 40.9 | 32.2 | 37.1 | 35.5 | 19.2 | 15.1 |  |  |  |  |  | viability, T/C (second compound 0.1 µM, first compound 0.000316 µM): 90.4%; viability, T/C (second compound 0.1 µM, first compound 0.001 µM): 81.1%; viability, T/C [1]: 69.8%; viability, T/C [2]: 64%; viability, T/C (second compound 0.316 µM, first compound 0.000316 µM): 67.3%; viability, T/C (second compound 0.316 µM, first compound 0.001 µM): 76.8%; viability, T/C [5]: 75.5%; viability, T/C [6]: 63.2%; viability, T/C (second compound 1 µM, first compound 0.000316 µM): 68.8%; viability, T/C (second compound 1 µM, first compound 0.001 µM): 76.1%; viability, T/C [9]: 77.2%; viability, T/C [10]: 60.8%; viability, T/C (second compound 3.16 µM, first compound 0.000316 µM): 72.9%; viability, T/C (second compound 3.16 µM, first compound 0.001 µM): 74.8%; viability, T/C [13]: 66.6%; viability, T/C [14]: 45.7%; viability, T/C (second compound 10 µM, first compound 0.000316 µM): 25.8%; viability, T/C (second compound 10 µM, first compound 0.001 µM): 24.8%; viability, T/C [17]: 24.9%; viability, T/C [18]: 18%
2 | COc1cc(C2c3cc4c(cc3C(OC3OC5COC(C)OC5C(O)C3O)C3COC(=O)C23)OCO4)cc(OC)c1O (stereo not given) + Cc1cncc(-c2nc(NCCc3c[nH]c4ccccc34)c3ncn(C(C)C)c3n2)c1 | 416 | 611 | 283 | 233 | < 31.6 | 74.3 | 89.4 | 79.5 | 76.3 | 74.9 | 72.9 | 76.1 | 61.4 | 30.6 | 27.4 | 54.7 | 36.6 | 62.2 | 40.9 | 47.6 | viability, T/C [23]: 34.1%; viability, T/C [24]: 34%; viability, T/C [27]: 35.1%; viability, T/C [28]: 34.2%; viability, T/C [30]: 36%; viability, T/C [31]: 40.5%; viability, T/C [32]: 34.2%; viability, T/C [33]: 41.7%; viability, T/C [34]: 44%; viability, T/C [35]: 35.7%; viability, T/C [36]: 32.7%; viability, T/C [37]: 23.1%; viability, T/C [38]: 23.5%; viability, T/C [39]: 14%; viability, T/C [40]: 14.1%
3 | COc1cccc2c1C(=O)c1c(O)c3c(c(O)c1C2=O)CC(O)(C(=O)CO)CC3OC1CC(N)C(O)C(C)O1 (stereo not given) + Cc1cncc(-c2nc(NCCc3c[nH]c4ccccc34)c3ncn(C(C)C)c3n2)c1 | < 31.6 | < 31.6 | < 31.6 | < 31.6 | < 31.6 | 51 | 43 | 43.4 | 39.2 | 39.5 | 37.5 | 38.9 | 35 | 16.8 | 16.6 | 33.4 | 16 | 34.8 | 13 | 28.9 | viability, T/C [23]: 0.94%; viability, T/C [24]: 5.91%; viability, T/C [27]: 0.92%; viability, T/C [28]: 4.49%; viability, T/C [30]: 10.9%; viability, T/C [31]: 1.66%; viability, T/C [32]: 4.68%; viability, T/C [33]: 27.1%; viability, T/C [34]: 5.93%; viability, T/C [35]: 2.35%; viability, T/C [36]: 6.56%; viability, T/C [37]: 14.3%; viability, T/C [38]: 2.4%; viability, T/C [39]: 6.71%; viability, T/C [40]: 5.96%
4 | Nc1ncn(C2CC(O)C(CO)O2)c(=O)n1 (stereo not given) + Cc1cncc(-c2nc(NCCc3c[nH]c4ccccc34)c3ncn(C(C)C)c3n2)c1 | 206 | 264 | 80.4 | 481 | < 3.16 | 81.4 | 54.7 | 78.2 | 55.6 | 68 | 45.3 | 69.2 | 70.2 | 21.3 | 19.5 | 48.8 | 28.1 | 52.1 | 27.9 | 45.9 | viability, T/C [1]: 83%; viability, T/C [2]: 89.2%; viability, T/C [5]: 75.5%; viability, T/C [6]: 86.1%; viability, T/C [9]: 73%; viability, T/C [10]: 82.7%; viability, T/C [30]: 33.3%; viability, T/C [13]: 71.4%; viability, T/C [14]: 72%; viability, T/C [33]: 53.7%; viability, T/C [34]: 38%; viability, T/C [17]: 25.7%; viability, T/C [18]: 26.9%; viability, T/C [37]: 20.1%; viability, T/C [38]: 18.9%
